Patent US7087633B2, “Method for treating perinatal asphyxia in a human or animal neonate” (Universitair Medisch Centrum, priority 2000, dated 2006)
“Also recorded” adds a separate entry of the source.

Assays:
newborn piglets = settings: cited from earlier work
neuronal NOS = settings: injectable intraperitoneally; cited from earlier work
neonatal rats [1] = settings: cited from earlier work
[2] = system: newborn Dutch store piglets subjected to HI; settings: for neurologic score / electrical brain activity (aEEG): 3 to 24 h post HI, versus PLAC, repeated ANOVA, all p<0.05; for piglets died post HI: ALLO n=10 (HI complications, 18 h), DFO n=10 (hypovolemic shock, 13 h), 2-IB n=7 (sepsis)
Procedure: Following anaesthesia and instrumentation 37 newborn Dutch store piglets (1–3 days old) were subjected to HI by occluding both common carotid arteries with inflatable cuffs and reducing the fraction of inspired oxygen for 60 min. MRS was performed continuously before, during and up to 3 h after start of HI and repeated at 24 h post HI. During hypoxia FiO2 was reduced>on-line=until PCr/Pi had decreased to at least 25% of baseline values. Immediately after HI the piglets received either placebo (PLAC; n=10), ALLO (20 mg/kg iv; n=10), DFO (10 mg/kg iv; n=10) or 2-IB (150 μM i.v.; n=7). Before HI and from 3 to 24 h post HI the piglets were monitored using aEEG for electrical brain activity determination. A neurologic scoring system was used ranging from 4 (normal) to 0 (flat trace). For 1H-MRS a PRESS sequence with CHESS water suppression was used to define a 1.7 ml periventricular voxel (TR 6 s, TE 144 ms, and nt=32 or 64). 31 P— MRS was done using a 4 cm-diameter surface coil for excitation and detection (TR 10 s, nt=32). Peak amplitudes of PCr, Pi, Lac and NAA were determined with time domain fitting procedures (VARPRO). Paired t-tests were used to compare measurements at 24 h versus baseline; repeated ANOVA served to monitor for trends between treatment groups.

[3] = system: free radical-induced brain damage in newborns; settings: pilot study in newborn babies and experimental studies; cited from earlier work
neonatal rats [4] = settings: cited from earlier work; remark: listed apart in the source
[5] = system: brain regions at risk after HI (hippocampus, cortex, striatum and cerebellum); assay: Histological analysis and nitrotyrosylation immunohistochemistry of brain at 24 h post HI; assay type: in vivo, piglet
crossbred piglets = assay: Postnatal growth experiments in newborn piglets; assay type: in vivo, piglet
Procedure: A study in newborn piglets was performed to identify the potential effects of 2-iminobiotin on postnatal growth. Data from 138 crossbred piglets (originating from 28 litters) were collected on a commercial, Dutch pig farm over the period from 21 Jul. 2001 to 6 May 2003.

[6] = 24 h post HI versus baseline, ALLO 20 mg/kg iv, DFO 10 mg/kg iv, 2-IB 150 μM i.v.
[7] = Least Square Means, total 1.1 mg/kg in 24 h after birth, n=67
[8] = during the first 10 days of life, n=67

**Q.** With `N=C(NCCC[C@H](N)C(=O)O)N[N+](=O)[O-]` [NNLA, N^G-nitro-L-arginine] as the molecule, how does the “cerebral energy status during and after hypoxia-ischemia” value (newborn piglets) read?
**A.** compromised

**Q.** With `O=[N+]([O-])c1cccc2cn[nH]c12` [7-nitroindazole] as the molecule, how does the apoptosis (neuronal NOS) read?
**A.** effective in reducing apoptosis

**Q.** And the levels of citrulline (neuronal NOS)?
**A.** reducing the levels of citrulline

**Q.** For `COC(=O)[C@@H](N)CCCNC(=N)N[N+](=O)[O-]` [L-NAME, L-nitro-arginine methyl ester], which neuroprotection (neonatal rats [1]) is on record?
**A.** neuroprotective

**Q.** What does the source list for `Oc1ncnc2[nH]ncc12` [ALLO, allopurinol, reference compound]?
**A.** neurologic score / electrical brain activity (aEEG) [2]: significant difference; PCr/Pi (cerebral energy status) [2, 6]: prevented partly; piglets died post HI [2]: 1 piglet; free radical-induced brain damage in newborns [3]: reduce free radical-induced brain damage in newborns to some extend

**Q.** With `CC(=O)N(O)CCCCCNC(=O)CCC(=O)N(O)CCCCCNC(=O)CCC(=O)N(O)CCCCCN` [DFO, deferoxamine, reference compound] as the molecule, how does the “piglets died post HI” value [2] read?
**A.** 1 piglet

**Q.** For `N=C(N)NN` [aminoguanidine], which infarct volumes (neonatal rats [4]) is on record?
**A.** reduced infarct volumes

**Q.** For `N=C1N[C@H]2[C@H](CS[C@H]2CCCCC(=O)O)N1` [2-IB, 2-iminobiotin], which “neurologic score / electrical brain activity (aEEG)” value [2] is on record?
**A.** significant difference; also recorded: preserved electrical brain activity

**Q.** What about the Lac/NAA [2, 6] of the same molecule?
**A.** identical to baseline values; also recorded: prevented increment

**Q.** What about the “PCr/Pi (cerebral energy status)” value [2, 6] of the same molecule?
**A.** identical to baseline values; also recorded: preserved completely

**Q.** What about the “piglets died post HI” value [2] of the same molecule?
**A.** 1 piglet

**Q.** And the “more effective than treatment with allopurinol and/or deferoxamine” value ([2]; in vivo studies involving piglets, versus allopurinol and/or deferoxamine)?
**A.** about 25%

**Q.** What about the “more effective than placebo treatment in preventing and/or treating the effects” value ([2]; in vivo studies involving piglets, versus placebo) of the same molecule?
**A.** about 60%

**Q.** And the “alive cells in brain regions at risk after HI” value ([5]; histology)?
**A.** more alive cells

**Q.** What about the necrosis ([5]; histology) of the same molecule?
**A.** less necrosis

**Q.** And the structural architecture ([5]; histology)?
**A.** better preserved structural architecture

**Q.** What about the “nitrotyrosylation staining in the affected areas” value ([5]; immunohistochemistry) of the same molecule?
**A.** no staining; also recorded: less nitrotyrosylation staining

**Q.** What about the “Growth at 6 weeks” value (crossbred piglets; [7]) of the same molecule?
**A.** 250 gram/day

**Q.** And the “Growth at 10 days” value (crossbred piglets; [7])?
**A.** 208 gram/day

**Q.** What about the Growth at weaning (crossbred piglets; [7]) of the same molecule?
**A.** 248 gram/day

**Q.** What about the “piglets died (number)” value (crossbred piglets; [8]) of the same molecule?
**A.** 9 piglets

**Q.** What about the “piglets died (percentage of group)” value (crossbred piglets; [8]) of the same molecule?
**A.** 13%

**Q.** What about the “Pathology and histology: adverse effects of treatment” value (crossbred piglets; in vivo) of the same molecule?
**A.** no adverse effects
